Patent US20200330420A1, “LONG CHAIN FATTY ACID FORMULATIONS AND THEIR USE IN INHIBITING SALMONELLA INFECTION” (priority 2019, published 2020)

Experiments:
HilD [1] = biological target: T1, HilD (Salmonella typhimurium, UniProt P0CL08); assay: Electrophoretic mobility shift assay, HilD binding to hilA promoter DNA; parameters: 6xHis-NusA (followed by an HRV 3C protease site) (N, cleaved yes); made in house; host or cells: E. coli BL21(DE3), vector pCAV4; conditions: FIG. 7
HilC = HilC (Salmonella typhimurium, UniProt P0CL09); assay: Electrophoretic mobility shift assay, HilC binding to hilA promoter DNA; conditions: FIG. 7
Protocol: (§1) Electrophoretic mobility shift assays (EMSAs). EMSAs were performed as previously described (Y. A. Golubeva et al., M Bio, 7(1), 2016). Briefly, 10 nM of hilA promoter DNA was mixed with 150 μM HilD, HilC or RtsA in a binding buffer containing 20 mM KCl, 1% glycerol, 1 mM DTT, 0.04 mM EDTA, 0.05% Tergitol™ NP-40 and 20 mM HEPES, pH 7.3. cis-2-hexadecenoic acid was tested at concentrations of […] Binding was performed at room temperature for 20 minutes. Samples were separated on 6% Novex® TBE DNA retardation gels, and DNA was stained using SYBR® green (Invitrogen).

RtsA = assay: Electrophoretic mobility shift assay, RtsA binding to hilA promoter DNA; parameters: species or system Salmonella; conditions: FIG. 7
Protocol: as §1

hilA expression = assay: Luciferase assay, hilA::luxCDABE reporter fusion; format: cell-based
From the text: (§2) Strains. Salmonella enterica subsp. enterica serovar Typhimurium 14028s, and mutants thereof, were used throughout. Deletion mutants were constructed as previously described (K. A. Datsenko et al., PNAS USA, 97(12), 6640-6645, 2000). Briefly, PCR fragments of kanamycin and chloramphenicol resistance genes containing 40 base pair homology extensions flanking the gene of interest were generated using pKD4 and pKD3 plasmids. The PCR fragments were transformed into a strain expressing λ Red recombinase. Loss of the gene of interest was confirmed using PCR. Unmarked mutants were generated using a helper plasmid pCP20 carrying a gene encoding the FLP recombinase. Marked deletions and constructs were transferred using bacteriophage P22 transduction (N. L. Sternberg et al., Methods Enzymol., 204, 18-43, 1991).
(§3) Luciferase assays. Strains carrying luxCDABE reporter fusions were grown overnight in LB with the necessary antibiotics. Overnight cultures were diluted 100-fold into M9 minimal medium with glucose, antibiotics and 1 mM nonanoic acid (added to repress SPI invasion gene expression to eliminate background luminescence), and grown overnight. The cultures were washed three times with PBS. Bacteria were inoculated at a starting OD600 of 0.02 into 150 μL of LB containing 100 mM MOPS pH 6.7, the necessary antibiotics and compounds to be tested, in a sealed black-walled 96 well plate. Luminescence was measured every 30 minutes for 24 hours using a Biotek Synergy™ H1 microplate reader.

sopB expression = assay: Luciferase assay, sopB::luxCDABE reporter fusion; format: cell-based; conditions: ΔhilD mutant, rtsA under tetracycline-inducible promoter; 20 μM; FIG. 4A
From the text: as §2
as §3, with “Bacteria were inoculated at a starting OD600 of 0.02 into 150 μL of LB containing 100 mM MOPS pH 6.7, the necessary antibiotics and compounds to be tested, in a sealed black-walled 96 well plate.” left out

HilD [2] = biological target: T1, HilD; assay: HilD half-life assay (western blot of HilD-3xFLAG); format: cell-based; parameters: expressed in transfected cells; host or cells: Salmonella Typhimurium 14028s derivative carrying PtetRA-hilD-3xFLAG, with Lon present or absent; conditions: Lon mutant (absence of Lon); 20 μM; FIG. 5A
[3] = 10, 25, 50 and 75 μM fatty acid
[4] = chain length comparison, FIG. 1E
[5] = hilD only: ΔrtsA ΔhilC, hilD under tetracycline-inducible promoter, 20 μM, FIG. 4C

T1 sequence (P0CL08 whole entry): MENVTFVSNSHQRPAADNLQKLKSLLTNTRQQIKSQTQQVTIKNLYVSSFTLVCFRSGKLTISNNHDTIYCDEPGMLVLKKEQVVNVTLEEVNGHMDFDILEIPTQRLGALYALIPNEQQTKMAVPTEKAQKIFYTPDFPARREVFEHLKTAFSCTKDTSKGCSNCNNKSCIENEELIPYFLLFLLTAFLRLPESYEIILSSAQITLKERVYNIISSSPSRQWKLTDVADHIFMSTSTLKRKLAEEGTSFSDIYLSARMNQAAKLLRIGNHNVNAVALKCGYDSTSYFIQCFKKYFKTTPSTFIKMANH
HilC, sequence (P0CL09 whole entry): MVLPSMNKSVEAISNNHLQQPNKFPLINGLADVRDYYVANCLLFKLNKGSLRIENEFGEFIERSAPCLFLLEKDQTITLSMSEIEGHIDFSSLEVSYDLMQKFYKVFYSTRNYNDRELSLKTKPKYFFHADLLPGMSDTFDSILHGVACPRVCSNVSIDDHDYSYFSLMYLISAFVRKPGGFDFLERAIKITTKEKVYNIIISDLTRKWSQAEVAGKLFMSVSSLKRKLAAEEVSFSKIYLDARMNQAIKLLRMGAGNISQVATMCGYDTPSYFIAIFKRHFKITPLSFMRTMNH

What does the source list for CCCCCCCCCCCCC/C=C\C(=O)O [c2-HDA, Cis-2-hexadecenoic acid]?
binding of HilD to the hilA promoter (HilD [1]; 20 μM fatty acid, 10 nM hilA promoter DNA): completely inhibited from binding hilA promoter DNA; binding of HilD to the hilA promoter (HilD [1]; 1, 2, 5 and 10 μM fatty acid): partially; binding of HilC to the hilA promoter (HilC; 100 μM fatty acid): prevented binding to the hilA promoter; binding of HilC to the hilA promoter (HilC; [3]): partially; binding of RtsA to the hilA promoter (RtsA; 100 μM fatty acid): prevented binding to the hilA promoter; binding of RtsA to the hilA promoter (RtsA; [3]): partially; repression of hilA expression (hilA expression; 1 μM, FIG. 1B): 80 fold; reduction of hilA expression (hilA expression; [4]): 159 fold; reduction of hilA expression (hilA expression; hilC only (tetracycline-inducible), null hilD and rtsA, FIG. 6B): 20 fold; repression of hilA in a hilD mutant (hilA expression; hilD mutant, FIG. 4A): modest repression; repression of hilA expression (hilA expression; [5]): 78 fold; reduction of hilA expression (hilA expression; rtsA only (tetracycline-inducible), null hilD and hilC, FIG. 6A): 13 fold; repression of hilA expression (hilA expression; Δlon mutation, 20 μM, FIG. 5B): continued to repress hilA expression; repression of sopB expression (sopB expression): 11 fold; effect on HilD stability (HilD [2]): no effect on its stability

For CCCCCCC/C=C\C(=O)O [cis-2-decenoic acid], which “reduction of hilA expression” value (hilA expression; [4]) is on record?
The value was 28%.

CCCCCCCCC/C=C\C(=O)O [cis-2-dodecenoic acid] was tested. Which “reduction of hilA expression” value (hilA expression; [4]) did it give?
Its value is 3 fold.

With CCCCCCCCCCCCCCCCC/C=C\C(=O)OC [cis-2-eicosenoic acid methyl ester, reference compound] as the compound, how does the “repression of hilA expression” value (hilA expression; 40 μM methyl ester, FIG. 2B) read?
Its value is “not to significantly repress hilA expression”.

What does the source list for CCCCCCCCCCCCCCCCC/C=C\C(=O)O [cis-2-eicosenoic acid]?
reduction of hilA expression (hilA expression; [4]): 10 fold; repression of hilA expression (hilA expression; [5]): 3 fold

How did the “repression of hilA expression” value (hilA expression; 20 μM methyl ester, FIG. 2A) turn out when CCCCCCCCCCCCC/C=C\C(=O)OC [cis-2-hexadecenoic acid methyl ester, reference compound] was run?
Its value is “not to significantly repress hilA expression”.

With CCCCCCCC/C=C\CCCCCCCC(=O)O [oleic acid, cis-9-octadecenoic acid, reference compound] as the compound, how does the “repression of hilA expression” value (hilA expression; [5]) read?
The value was 1.2 fold.

Which “less potent in repressing hilA than the cis-isomer” value (hilA expression; FIG. 1A, 20 μM fatty acids per legend) does the source give for CCCCCCCCCCCCC/C=C/C(=O)O [trans-2-hexadecenoic acid, reference compound] here?
Its value is 31 fold.
